Assays:
[1] = tested on: CD4+ T cells, Sézary cells; assay: Cytokine production by CD4+ cells and Sézary cells stimulated with anti-CD3/28/2; format: cell-based, human
From the text: This is significant because cytokines secreted by Th2 cells are involved in inflammation, allergy and autoimmunity. […] There was no effect on Th1-dependent IFNg, except at high concentrations. Inhibition of Th2 cells blocks production of various inflammatory cytokines, including IL-4, IL-5, IL-9, IL-13, and IL17a.

[2] = tested on: IFNγ production by CD4+ T cells; assay: T cell activation, IFNγ+CD4+ T cells; format: cell-based, human
Protocol: (§1) Fresh PBMCs from healthy human donors were centrifuged and reconstituted at 0.312×10^6 cells/mL in RPMI 1640 medium+10% heat-inactivated FBS+1× penicillin streptomycin and 100,000 cells/well were distributed into 24 well tissue culture plate. Cells were incubated at 37° C. for 1 hour, followed by the addition of CPI 596 or vehicle. The cells were then incubated at 37° C. for 1 hour, followed by the addition of […] anti CD3 and anti CD28 (both eBioscience). Cells were incubated at 37° C. for 6 days, with supplemental media supplied on day 3. On Day 6, the cells were transferred to a 96 deep well plate, washed, and treated with 50 nM phorbol 12-myristate 13-acetate, 1 μg/mL ionomycin, and 1 μg/mL brefeldin A, and then incubated at 37° C. for 4 hours. The cells were then fixed and permeabilized using eBioscience Fox3/transcription factor staining buffer. Cells were treated with Fc block (BioLegend) and then stained with CD3 BV605, CD45RA PerCP-Cy5.5, Tbet PE, IFNγ AF488, IL-4 APC (BioLegend), CD4 PE-Cy7, cPARP AF700 (BD Biosciences), and CD8 Krome Orange (Beckman Coulter). For flow cytometry, 300,000 cells were acquired on Cytoflex (Beckman Coulter). Data were analyzed using Flowjo software. The percentage of CD4^+ T cells that were positive for IFNγ and IL 4 were reported.

S6 phosphorylation = assay: pS6 flow cytometry after CD3/28 crosslinking; format: cell-based; conditions: Homo sapiens, mean of three donors
Protocol: PBMCs were pelleted (400×g at 4° C. for 5 minutes) and resuspended in RPMI+10% heat-inactivated fetal bovine serum (FBS) at 14.3×10^6 cells/mL; 70 μL (1×10^6 cells) were plated in a 96 well U bottom plate and incubated at 37° C. for 1 hour. […] CD3-biotin and CD28-biotin were prepared together at 10 μg/mL each, which is 10× the final concentration; 10 μL antibodies were added to the cells and incubated at 37° C. for 15 minutes. Avidin was prepared at 500 μg/mL, which is 10× the final concentration; 10 μL avidin were added to the cells and incubated at 37° C. for 5 minutes to induce TCR crosslinking. A total volume of 100 μL cells were transferred to 200 μL warm 2.4% paraformaldehyde (PFA) in deep well blocks. Pipetting was performed using a liquidator 96 to add reagents to the entire plate with uniform timing. Cells were fixed with PFA at 37° C. for 10 minutes. Cells were pelleted (1000× g for 5 minutes), and the plate was aspirated leaving approximately 100 μL residual volume. The plate was then vigorously vortexed for 10 seconds, and 1 mL −20° C. methanol was added to each well. Cells were stored at […] for approximately 1 month. […] Inhibition was measured by construction of a concentration response curve of the Log base 10 transformed values of the molar concentration of inhibitor. […]

human kinome = assay: Human kinome profiling at 1.0 μM; format: biochemical
human T cells (PBMC) = assay: T cell activation, Th1 skewing, cell number and viability; format: cell-based
Protocol: as §1

ITK = biological target: T1, ITK (Homo sapiens, UniProt Q08881); assay: Dialysis assay; format: biochemical; conditions: 24 h dialysis
T1 sequence (Q08881 1-620): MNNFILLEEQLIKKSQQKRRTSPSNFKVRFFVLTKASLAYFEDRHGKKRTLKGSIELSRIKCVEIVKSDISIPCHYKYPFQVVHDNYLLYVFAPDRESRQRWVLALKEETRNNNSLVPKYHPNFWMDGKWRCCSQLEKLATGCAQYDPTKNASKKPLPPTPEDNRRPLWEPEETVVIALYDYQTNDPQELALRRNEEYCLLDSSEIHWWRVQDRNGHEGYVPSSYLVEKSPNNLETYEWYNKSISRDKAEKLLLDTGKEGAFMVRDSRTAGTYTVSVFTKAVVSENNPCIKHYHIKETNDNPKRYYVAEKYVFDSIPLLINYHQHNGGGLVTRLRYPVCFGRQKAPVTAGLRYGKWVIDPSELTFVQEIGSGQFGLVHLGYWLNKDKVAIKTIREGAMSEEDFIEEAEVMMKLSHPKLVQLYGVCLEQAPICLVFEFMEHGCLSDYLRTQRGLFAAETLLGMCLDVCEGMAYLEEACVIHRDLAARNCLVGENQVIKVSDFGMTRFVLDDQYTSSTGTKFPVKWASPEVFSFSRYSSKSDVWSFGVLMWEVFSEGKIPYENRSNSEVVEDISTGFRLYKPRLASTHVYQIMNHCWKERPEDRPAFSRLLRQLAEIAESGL
Protocol: Dialysis was performed at room temperature against the same buffer for 24 hours in a Slide-A-Lyzer dialysis device (10 kDa MWCO) with three changes of the dialysis buffer giving a nominal final dialysis factor of 8×10^6. Un-dialyzed control samples incubated in parallel for 24 hours. ITK activity was measured following dialysis in a continuous sampling format using the microfluidic assay and 300 μM ATP and 2 μM Scrtide peptide substrate. The enzymatic velocity of treated samples was normalized to the appropriate control rate and expressed as a percent.

IC50 (S6 phosphorylation): 96 nM
ITK activity after extensive dialysis (ITK): kinase activity was not recovered
ITK activity after extensive dialysis (ITK; listed as CP-818): remained inhibited
Compound: C=CC(=O)N1CCCN(C(=O)c2cc(Sc3cnc(NC(=O)C4CC4)s3)c(C)cc2OC)C[C@H]1C [CPI-818]
Interferon gamma (IFNg) production [1]: only inhibited at high concentrations
Th2 cytokine production ([1]; CD4+ T cells): dose-dependent inhibition of Th2 cytokine
effect on IFNγ production ([2]; 1 μM, average across samples): 19%
IFNγ-positivity ([2]; 10 μM): robustly inhibited
effect on percentage of IFNγ+CD4+ T cells ([2]; up to 1 μM, average): < 20%
number of kinases inhibited ≥65% (human kinome): eight
total T cell proliferation (human T cells (PBMC); 10 μM): abrogates total T cell proliferation
total number of cells and cell viability (human T cells (PBMC); ≥1 μM / high concentrations): reduced the total number of cells while maintaining cell viability

From US20250213587A1, “ITK INHIBITORS FOR INCREASING TH1 CELL ACTIVITY” (Corvus Pharmaceuticals, Inc., priority 2022, published 2025)
